From the NIST ThermoML archive (doi:10.1021/acs.jced.6b00542)

Assay: xn = mol fraction of the nth substance listed
Conditions: for surface tension liquid-gas: 294.5 K, Pendant drop shape; for speed of sound: 100 kPa, Frequency=3 MHz, Sing-around technique in a fixed-path interferometer; for speed of sound / viscosity / mass density: Liquid; for viscosity / mass density: 102 kPa; for viscosity: Concentric cylinders viscometry; for mass density: Vibrating tube method

CCCCCCCCCCCCCCCCC [heptadecane] + CCCCc1ccccc1
Conditions	surface tension liquid-gas [mN/m]
x2 = 0.1662	27.6
x2 = 0.3047	27.7
x2 = 0.4587	28
x2 = 0.6419	28.2
x2 = 0.7515	28.3
x2 = 0.8742	29.2

Conditions	mass density [kg/m3]	speed of sound [m/s]	viscosity [mPa·s]
303.15 K, x2 = 0	771.02	1330.9	3.25
303.15 K, x2 = 0.1662	777.94	1325.3	2.73
303.15 K, x2 = 0.3047	784.91	1321.4	2.35
303.15 K, x2 = 0.4587	794.08	1316.9	1.96
303.15 K, x2 = 0.6419	808.08	1312.4	1.56
303.15 K, x2 = 0.7515	818.66	1311.3	1.35
303.15 K, x2 = 0.8742	833.23	1311	1.13
313.15 K, x2 = 0	764.16	1294.5	2.61
313.15 K, x2 = 0.1662	771	1289	2.23
313.15 K, x2 = 0.3047	777.87	1285	1.94
313.15 K, x2 = 0.4587	786.92	1280.3	1.64
313.15 K, x2 = 0.6419	800.73	1275.9	1.32
313.15 K, x2 = 0.7515	811.14	1274.1	1.15
313.15 K, x2 = 0.8742	825.49	1273.6	0.967
323.15 K, x2 = 0	757.3	1258.8	2.14
323.15 K, x2 = 0.1662	764.03	1253.3	1.85
323.15 K, x2 = 0.3047	770.84	1249.2	1.62
323.15 K, x2 = 0.4587	779.75	1244.5	1.39
323.15 K, x2 = 0.6419	793.34	1239.7	1.14
323.15 K, x2 = 0.7515	803.6	1237.6	1
323.15 K, x2 = 0.8742	817.71	1236.6	0.844
333.15 K, x2 = 0	750.45	1223.8	1.79
333.15 K, x2 = 0.1662	757.11	1218.1	1.56
333.15 K, x2 = 0.3047	763.79	1214	1.38
333.15 K, x2 = 0.4587	772.56	1209.1	1.2
333.15 K, x2 = 0.6419	785.94	1204	0.981
333.15 K, x2 = 0.7515	796.02	1201.6	0.865
333.15 K, x2 = 0.8742	809.9	1200.1	0.747
343.15 K, x2 = 0	743.7	–	1.52
343.15 K, x2 = 0.1662	750.12	–	1.33
343.15 K, x2 = 0.3047	756.65	–	1.19
343.15 K, x2 = 0.4587	765.4	–	1.04
343.15 K, x2 = 0.6419	778.47	–	0.861
343.15 K, x2 = 0.7515	788.4	–	0.768
343.15 K, x2 = 0.8742	802	–	0.671
353.15 K, x2 = 0	736.8	–	1.3
353.15 K, x2 = 0.1662	743.1	–	1.16
353.15 K, x2 = 0.3047	749.6	–	1.04
353.15 K, x2 = 0.4587	758.1	–	0.906
353.15 K, x2 = 0.6419	771	–	0.763
353.15 K, x2 = 0.7515	780.7	–	0.684
353.15 K, x2 = 0.8742	794.1	–	0.602
363.15 K, x2 = 0	729.8	–	1.14
363.15 K, x2 = 0.1662	736.1	–	1.01
363.15 K, x2 = 0.3047	742.4	–	0.909
363.15 K, x2 = 0.4587	750.8	–	0.805
363.15 K, x2 = 0.6419	763.4	–	0.687
363.15 K, x2 = 0.7515	773	–	0.623
363.15 K, x2 = 0.8742	786.1	–	0.546
373.15 K, x2 = 0	723	–	1
373.15 K, x2 = 0.1662	729	–	0.891
373.15 K, x2 = 0.3047	735.2	–	0.811
373.15 K, x2 = 0.4587	743.5	–	0.725
373.15 K, x2 = 0.6419	755.8	–	0.628
373.15 K, x2 = 0.7515	765.2	–	0.567
373.15 K, x2 = 0.8742	778.1	–	0.499
